In patent US9999222B2, “Herbicidal combination comprising azines” (BASF SE, priority 2014, dated 2018):
“And” between values parts separate entries of the source, which are not always exact repeats. Equal values may be shown once.

Assays:
AMARE [1] = assay: Greenhouse test, post-emergence treatment; format: in vivo, Amaranthus retroflexus; details: application rate 1.0 kg/ha, scale 0 to 100
From the text: (§1) The culture containers used were plastic flowerpots containing loamy sand with approximately 3.0% of humus as the substrate. The seeds of the test plants were sown separately for each species.
(§2) For the post-emergence treatment, the test plants were first grown to a height of […], depending on the plant habit, and only then treated with the active ingredients which had been suspended or emulsified in water. For this purpose, the test plants were either sown directly and grown in the same containers, or they were first grown separately as seedlings and transplanted into the test containers a few days prior to treatment.
(§3) Depending on the species, the plants were kept at 10-25° C. or 20-35° C., respectively.
(§4) The test period extended over 2 to 4 weeks. During this time, the plants were tended, and their response to the individual treatments was evaluated.
(§5) Evaluation was carried out using a scale from 0 to 100. 100 means no emergence of the plants, or complete destruction of at least the aerial moieties, and 0 means no damage, or normal course of growth. A moderate herbicidal activity is given at values of at least 60, a good herbicidal activity is given at values of at least 70, and a very good herbicidal activity is given at values of at least 85.

POLCO [2] = assay: Greenhouse test, post-emergence treatment; format: in vivo, Polygonum convolvulus; details: application rate 1.0 kg/ha, scale 0 to 100
From the text: as §1, §2, §3, §4, §5

ABUTH = assay: Greenhouse test, pre-emergence treatment; format: in vivo, Abutilon theophrasti
In short: (§6)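 Seeds were sown in loamy sand with about 3.0% humus, and compounds in water were sprayed immediately after sowing, alone or as combinations formulated as 10% emulsion concentrates. Plants grew under hoods until rooted, at 10-25 °C or 20-35 °C by species, for 2 to 4 weeks. Damage was scored 0-100 (100 = no emergence or complete destruction), and Colby expected values were E=X+Y−(X·Y/100).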

AMARE [3] = assay: Greenhouse test, pre-emergence treatment; format: in vivo, Amaranthus retroflexus; details: application rate 0.25 kg/ha, scale 0 to 100
From the text: as §1
(§7) For the pre-emergence treatment, the active ingredients, which had been suspended or emulsified in water, were applied directly after sowing by means of finely distributing nozzles. The containers were irrigated gently to promote germination and growth and subsequently covered with transparent plastic hoods until the plants had rooted. This cover caused uniform germination of the test plants, unless this had been impaired by the active ingredients.
as §3, §4
Evaluation was carried out using a scale from 0 to 100. […]
In the examples below, using the method of S. R. Colby (1967) “Calculating synergistic and antagonistic responses of herbicide combinations”, Weeds 15, p. 22ff., the value E, which is expected if the activity of the individual active compounds is only additive, was calculated. […]
(§8) If the value found experimentally is higher than the value E calculated according to Colby, a synergistic effect is present.

SETFA = assay: Greenhouse test, pre-emergence treatment; format: in vivo, Setaria faberi; details: SETFA, application rate 0.25 kg/ha, scale 0 to 100
From the text: as §1, §7, §3, §4, §5
(§9) The respective stated components a and b, and if appropriate, c were formulated as a 10% by weight strength emulsion concentrate and, with addition of the amount of solvent system, introduced into the spray liquor used for applying the active compound.
(§10) In the examples, the solvent used was water.
(§11) In the examples below, using the method of S. R. Colby (1967) “Calculating synergistic and antagonistic responses of herbicide combinations”, Weeds 15, p. 22ff., the value E, which is expected if the activity of the individual active compounds is only additive, was calculated. E=X+Y−(X·Y/100) where • X=percent activity using active compound a at an application rate A; • Y=percent activity using active compound b at an application rate B; • E=expected activity (in %) by a+b at application rates A+B.
as §8

ECHCG = assay: Greenhouse test, pre-emergence treatment; format: in vivo, Echinocloa crus-galli
From the text: as §1, §7, §3, §4, §5, §9, §10, §11, §8

ALOMY = assay: Greenhouse test, pre-emergence treatment; format: in vivo, Alopecurus myosuroides; details: pre-emergence
In short: as §6

POLCO [4] = assay: Greenhouse test, pre-emergence treatment; format: in vivo, Polygonum convolvulus; details: pre-emergence; for observed % activity 20 DAT: POLCO
In short: as §6

SETVI = assay: Greenhouse test, pre-emergence treatment; format: in vivo, Setaria viridis
From the text: as §1, §7, §3, §4, §5, §9, §10, §11, §8

AVEFA = assay: Greenhouse test, pre-emergence treatment; format: in vivo, Avena fatua; details: pre-emergence
From the text: as §1, §7, §3, §4, §5, §9, §10, §11, §8

BRADC = assay: Greenhouse test, pre-emergence treatment; format: in vivo, Brachiaria decumbens; details: pre-emergence
From the text: as §1, §7, §3, §4, §5, §9, §10, §11, §8

ELEIN = assay: Greenhouse test, pre-emergence treatment; format: in vivo, Eleusine indica
From the text: as §1, §7, §3, §4, §5, §9, §10, §11, §8

KCHSC = assay: Greenhouse test, pre-emergence treatment; format: in vivo, Kochia scoparia; details: pre-emergence
In short: as §6

LOLMU = assay: Greenhouse test, pre-emergence treatment; format: in vivo, Lolium multiflorum; details: pre-emergence
From the text: as §1, §7, §3, §4, §5, §9, §10, §11, §8

PHACA = assay: Greenhouse test, pre-emergence treatment; format: in vivo, Phalaris canariensis; details: pre-emergence
From the text: as §1, §7, §3, §4, §5, §9, §10, §11, §8

DIGSA = assay: Greenhouse test, pre-emergence treatment; format: in vivo
ANTAR = assay: Greenhouse test, pre-emergence treatment; format: in vivo; details: Anthemis arvensis, 480 h, 40 g ai/ha, 20 DAT, read-out: observed % activity
In short: as §6

COMBE = assay: Greenhouse test, pre-emergence treatment; format: in vivo, Commelina benghalensis; details: Commelina benghalensis, pre-emergence, 480 h
In short: as §6

EPHHL = assay: Greenhouse test, pre-emergence treatment; format: in vivo, Euphorbia heterophylla; details: Euphorbia heterophylla, pre-emergence, 480 h
In short: as §6

GALAP = assay: Greenhouse test, pre-emergence treatment; format: in vivo, Galium aparine; details: Galium aparine, pre-emergence, 480 h
In short: as §6

GERPU = assay: Greenhouse test, pre-emergence treatment; format: in vivo, Geranium pusillum; details: Geranium pusillum, pre-emergence, 480 h
In short: as §6

IPOHE = assay: Greenhouse test, pre-emergence treatment; format: in vivo, Ipomoea hederacea; details: Ipomoea hederacea, 480 h, 60 g ai/ha, read-out: observed % activity 20 DAT
In short: as §6

SIDRH = assay: Greenhouse test, pre-emergence treatment; format: in vivo, Sida rhombifolia; details: Sida rhombifolia, pre-emergence, 480 h, 40 g ai/ha, 20 DAT; read-out: observed % activity
In short: as §6

CENCY = assay: Greenhouse test, pre-emergence treatment; format: in vivo; details: 480 h, read-out: observed % activity 20 DAT
[5] = 80 g ai/ha, 20 DAT, read-out: observed % activity
[6] = 60 g ai/ha, read-out: observed % activity 20 DAT
[7] = 40 g ai/ha, 20 DAT, read-out: observed % activity

Nc1nc(CC2CC2)nc(Nc2c(F)cc(F)cc2F)n1 [Example 4, 6-(cyclopropylmethyl)-N4-(2,4,6-trifluorophenyl)-1,3,5-triazine-2,4-diamine]
herbicidal activity (AMARE [1]): very good herbicidal activity (a very good herbicidal activity is given at values of at least 85) | herbicidal activity (POLCO [2]): good herbicidal activity (a good herbicidal activity is given at values of at least 70)

CCCC(C)c1nc(N)nc(Nc2c(F)c(F)cc(F)c2F)n1 (stereo not drawn) [Example 6, 6-(1-methylbutyl)-N4-(2,3,5,6-tetrafluorophenyl)-1,3,5-triazine-2,4-diamine]
herbicidal activity (ABUTH; ABUTH, application rate 0.25 kg/ha, scale 0 to 100): very good herbicidal activity (a very good herbicidal activity is given at values of at least 85) | herbicidal activity (AMARE [3]): very good herbicidal activity (a very good herbicidal activity is given at values of at least 85) | herbicidal activity (SETFA): very good herbicidal activity (a very good herbicidal activity is given at values of at least 85)

CC(c1nc(N)nc(Nc2c(F)c(F)cc(F)c2F)n1)C(C)(C)C (stereo not drawn) [Example 7, N4-(2,3,5,6-tetrafluorophenyl)-6-(1,2,2-trimethylpropyl)-1,3,5-triazine-2,4-diamine]
herbicidal activity (AMARE [3]): very good herbicidal activity (a very good herbicidal activity is given at values of at least 85) | herbicidal activity (ECHCG; ECHCG, application rate 0.25 kg/ha, scale 0 to 100): very good herbicidal activity (a very good herbicidal activity is given at values of at least 85) | herbicidal activity (SETFA): very good herbicidal activity (a very good herbicidal activity is given at values of at least 85)

C#CCN1C(=O)C(F)(F)Oc2cc(F)c(-n3c(=O)n(C)c(=S)n(C)c3=O)cc21 [PPO, trifludimoxazin]
observed % activity 20 DAT (ALOMY; 25 g ai/ha): 60% | observed % activity 20 DAT (ECHCG; 18 g ai/ha): 0% | observed % activity 20 DAT (POLCO [4]; use rate 12.5 g ai/ha, 20 DAT): 0% | observed % activity 20 DAT (POLCO [4]; use rate 25 g ai/ha, 20 DAT): 0% | observed % activity 20 DAT (SETVI; 18 g ai/ha): 95% | observed % activity 20 DAT (SETVI; 36 g ai/ha): 90% | observed % activity 20 DAT (AVEFA; 25 g ai/ha): 0% | observed % activity 20 DAT (AVEFA; 36 g ai/ha): 15% | observed % activity 20 DAT (AVEFA; 50 g ai/ha): 0% | observed % activity 20 DAT (BRADC; 25 g ai/ha): 65% | observed % activity 20 DAT (BRADC; 36 g ai/ha): 25% | observed % activity 20 DAT (ELEIN; 18 g ai/ha): 55% | observed % activity 20 DAT (ELEIN; 36 g ai/ha): 90% | observed % activity 20 DAT (KCHSC; KCHSC, use rate 12.5 g ai/ha, 20 DAT): 25% | observed % activity 20 DAT (KCHSC; use rate 12.5 g ai/ha): 25% | observed % activity 20 DAT (KCHSC; use rate 25 g ai/ha): 85% | observed % activity 20 DAT (LOLMU; 25 g ai/ha): 0% | observed % activity 20 DAT (LOLMU; 36 g ai/ha): 35% | observed % activity 20 DAT (LOLMU; 50 g ai/ha): 55% | observed % activity 20 DAT (PHACA; 18 g ai/ha): 45% | observed % activity 20 DAT (PHACA; 25 g ai/ha): 35% | observed % activity 20 DAT (PHACA; 36 g ai/ha, listed as BAS 850 (PPO)): 70% and 65% | observed % activity 20 DAT (PHACA; use rate 12.5 g ai/ha): 85% | observed % activity 20 DAT (DIGSA; 18 g ai/ha): 85% | observed % activity 20 DAT (DIGSA; 36 g ai/ha): 90%

CC(C)N(C(=O)SCC(Cl)=C(Cl)Cl)C(C)C [Tri-allate, triallate]
inhibition at 400 g/ha (ALOMY; Alopecurus myosuroides, 480 h, 400 g ai/ha, read-out: observed % activity 20 DAT): 5% | inhibition at 200 g/ha (AVEFA; Avena fatua, 480 h, 200 g ai/ha, read-out: observed % activity 20 DAT): 45% | inhibition at 400 g/ha (AVEFA; Avena fatua, 480 h, 400 g ai/ha, read-out: observed % activity 20 DAT): 75% | inhibition at 200 g/ha (BRADC; Urochloa decumbens, 480 h, 200 g ai/ha, read-out: observed % activity 20 DAT): 0% | inhibition at 400 g/ha (ELEIN; Eleusine indica, 480 h, 400 g ai/ha, read-out: observed % activity 20 DAT): 0% | inhibition at 200 g/ha (PHACA; Phalaris canariensis, 480 h, 200 g ai/ha, read-out: observed % activity 20 DAT): 0% | inhibition at 400 g/ha (PHACA; Phalaris canariensis, 480 h, 400 g ai/ha, read-out: observed % activity 20 DAT): 0% | inhibition at 400 g/ha (DIGSA; Digitaria sanguinalis, 480 h, 400 g ai/ha, read-out: observed % activity 20 DAT): 0%

O=C(Nc1ccc(F)cc1F)c1cccnc1Oc1cccc(C(F)(F)F)c1 [diflufenican]
inhibition at 30 g/ha (ABUTH; Abutilon theophrasti, 480 h, 30 g ai/ha, read-out: observed % activity 20 DAT): 0% | inhibition at 40 g/ha (ABUTH; Abutilon theophrasti, 480 h, 40 g ai/ha, 20 DAT, read-out: observed % activity): 25% | inhibition at 60 g/ha (ABUTH; Abutilon theophrasti, 480 h, 60 g ai/ha, read-out: observed % activity 20 DAT): 0% | inhibition at 80 g/ha (ABUTH; Abutilon theophrasti, 480 h, 80 g ai/ha, 20 DAT, read-out: observed % activity): 50% | inhibition at 40 g/ha (POLCO [4]; Fallopia convolvulus, 480 h, 40 g ai/ha, 20 DAT, read-out: observed % activity): 20% | inhibition at 60 g/ha (POLCO [4]; Fallopia convolvulus, 480 h, 60 g ai/ha, read-out: observed % activity 20 DAT): 60% | inhibition at 40 g/ha (ANTAR): 85% | inhibition at 80 g/ha (COMBE; [5]): 55% | inhibition at 60 g/ha (COMBE; [6]): 35% | inhibition at 40 g/ha (EPHHL; [7]): 20% | inhibition at 60 g/ha (EPHHL; [6]): 15% | inhibition at 80 g/ha (GALAP; [5]): 40% | inhibition at 30 g/ha (GALAP; 30 g ai/ha, read-out: observed % activity 20 DAT): 20% | inhibition at 60 g/ha (GALAP; [6]): 25% | inhibition at 40 g/ha (GERPU; [7]): 40% | inhibition at 80 g/ha (GERPU; [5]): 50% | inhibition at 60 g/ha (GERPU; [6]): 60% | inhibition at 60 g/ha (KCHSC; Bassia scoparia, 480 h, 60 g ai/ha, read-out: observed % activity 20 DAT): 80% | inhibition at 60 g/ha (IPOHE): 15% | inhibition at 40 g/ha (SIDRH): 0% | inhibition at 30 g/ha (CENCY; 30 g ai/ha): 0% | inhibition at 60 g/ha (CENCY; 60 g ai/ha): 0%
